4 compounds from paper PMC4405350, “From Broad-Spectrum Biocides to Quorum Sensing Disruptors and Mussel Repellents: Antifouling Profile of Alkyl Triphenylphosphonium Salts” (PLoS ONE, 2015) can be followed below.

The test system of experiment [1] is Navicula cf. salinicola BEA 0055. Put plainly: Benthic diatom growth inhibition (chlorophyll-a). To be noted: 120 h; growth, 5 days, chlorophyll-a; read-out: IC50 Navicula cf. salinicola. It counts as cell-based. As to the method: (§1) All the biological assays were run by triplicate. […] For the active products, serial dilutions were performed to calculate the half-maximal inhibitory concentrations (IC50) or the minimal inhibitory concentrations (MIC). Unless otherwise stated, the test concentrations were 100, 50, 25, 10, 5, 2.5, 1, 0.5 and 0.1 μM. Dose-response curves were adjusted with GraphPad Prism 5 software using a four-parameter non-linear regression model.
(§2) Five strains of benthic diatoms, Nitszchia sp. […] The Nitzschia and Navicula strains were purchased from the Spanish Bank of Algae (Marine Biotechnology Center, University of Las Palmas de Gran Canaria). The other three strains were kindly provided by Dr. G. Courtois (University of Las Palmas de Gran Canaria). Diatoms were cultured at 19±1 °C in Erlenmeyer flaks (250 ml) containing 150 ml of Guillard’s F/2 medium, and subjected to a photoperiod of 18:6. Tests were run in 48-well plates. Inocula were prepared by adjusting diatom concentration to 2–4 × 10^6 cells ml^-1 using a Neubauer chamber. Test products were dissolved in F/2 medium (500 μl) to which diatom inocula (500 μl) were added. Thus, the final assay volume was 1 ml and the starting cell densities were ca. 1–2 x 10^6 diatoms ml^-1. Plates were incubated under the abovementioned conditions for 5 days and then chlorophyll-a (Chla) was quantified.
(§3) In order to extract Chla, the content of each well was transferred to a microcentrifuge tube and centrifuged at 10,000 rpm for 10 min. The supernatants were discarded and 200 μl of DMSO were added to the pellets. The tubes were incubated at 65 °C for 2 h in total darkness and vortexed every 30 min. Then, the content of each tube was transferred to a 96-well plate and the amount of Chla was determined spectrophotometrically. Path length correction factor for the DMSO extracts was determined.

Another experiment has as its system Nitzschia sp. Put plainly: Benthic diatom growth inhibition (chlorophyll-a). It counts as cell-based. To be noted: 120 h; growth, 5 days, chlorophyll-a; read-out: IC50 Nitzschia sp. As to the method: as §1, §2, §3
For the next experiment, the system named is Amphora sp. Kind of experiment: Benthic diatom growth inhibition (chlorophyll-a). It counts as cell-based. Conditions: 120 h; growth, 5 days, chlorophyll-a; read-out: IC50 Amphora sp. As to the method:
as §1, §2, §3

The next experiment deals with Cylindrotheca sp. Kind of experiment: Benthic diatom growth inhibition (chlorophyll-a). Conditions: 120 h; growth, 5 days, chlorophyll-a; read-out: IC50 Cylindrotheca sp. The experiment is classed as cell-based. On the procedure:
as §1, §2, §3

In experiment [2] the test system is Phaeodactylum tricornutum. Kind of experiment: Benthic diatom growth inhibition (chlorophyll-a). To be noted: Phaeodactylum tricornutum, 120 h; growth, 5 days, chlorophyll-a; read-out: IC50 P. tricornutum. It counts as cell-based. As to the method:
as §1, §2, §3

Experiment [3] deals with violacein production of C. violaceum CVO26. Kind of experiment: Quorum sensing bioassay: violacein production. The experiment is classed as cell-based, Chromobacterium violaceum. To be noted: 18 h; for pIC50: Chromobacterium violaceum, read-out: IC50 (Violacein inhibition); for IC50 (Violacein inhibition): with HHL, compounds 3-5 and 7 tested up to 500 μM, others up to 100 μM. As to the method: The reporter strain C. violaceum CVO26 (CECT 5999) was used to screen the ability of the products to interfere with violacein production, a QS-regulated phenotype. C. violaceum CVO26 is a mini-Tn5 mutant that depends on an exogenous source of autoinducer (AI) (N-hexanoyl homoserine lactone, HHL) for violacein production. C. violaceum CVO26 was cultured in LB broth (Sigma-Aldrich) supplemented with 25 μg ml^-1 kanamycin. Inocula were prepared by dilution (1:100) of an overnight culture of the reporter strain [49]. One hundred microliters of inoculum with HHL (Sigma-Aldrich, 6 μM) or without the AI were added to 96-well plates containing 100 μl of the appropriate dilutions of the test products in LB. Thus, two sets of plates were prepared. One set of plates (without HHL) was used to evaluate the effect of the products on bacterial growth, whereas the other set of plates (with HHL) was used to evaluate their effect on violacein production. Both sets of plates were incubated at 30 °C with agitation (150 rpm) for 18 h.
Growth inhibition was quantified in the first batch of plates by re-suspending bacterial pellets and measuring the OD625. From the second batch of plates violacein was extracted and quantified. Briefly, the plates were dried overnight (60 °C) and violacein was re-solubilized by the addition of 200 μl of DMSO. The plates were shaken for 3 h and then the OD590 was determined.
To evaluate the effect of the alkyl triphenylphosphonium salts on QS-regulated phenotypes, an initial screening at the cut-off concentration of 100 μM was conducted with C. violaceum CVO26. The QS model of C. violaceum is relatively simple and consists of an acyl-homoserine lactone synthase (CviI) that produces the AI molecule N-hexanoyl homoserine lactone (HHL, strain ATCC 31532), or N-3-hydroxydecanoyl homoserine lactone (strain ATCC 12472) which is recognized by the cytoplasmic receptor CviR (Fig 4). The reporter strain CVO26 is a CviI::mini-Tn5 mutant of strain ATCC 31532 and thus recognizes HHL. CviR is a DNA-binding transcription factor that activates the expression of the genes encoding the production of violacein, the characteristic purple alkaloid that gives name to the species.
Indeed, the inhibitions observed in violacein production for long alkyl chains (10–18, 20) were clearly correlated to the biocidal effect exerted by these compounds, with ‘therapeutic ratios’ (IC50 for growth inhibition/IC50 for violacein inhibition) around 1, in general (Table 2). Note that, as the length of the hydrocarbon chain becomes shorter, this ratio increased (8–9). […] To evaluate these compounds in further detail, […] stock solutions were prepared […] to avoid the use of high concentrations of DMSO in the bioassays. […] Serial two-fold dilutions (500–3.9 μM) were assayed. Consequently, the highest amount of DMSO used in the assay was 0.25% (v/v). […] Growth inhibitory effects are only observed at 500 μM, particularly for compound 7 (Fig 6D).

A further experiment deals with Fusarium sp. Kind of experiment: Marine-derived fungi growth inhibition (OD405). It counts as cell-based. To be noted: Fusarium, 120 h, 5 days, 26 °C. As to the method:
All the biological assays were run by triplicate.
Three strains of marine-derived fungi were kindly provided by Dr. Á. Trigos (University of Veracruz, Mexico). The strains were isolated from reef organisms collected from the Veracruz Reef System and identified as Aspergillus sp., Fusarium sp. and Alternaria sp..
Fungal strains were cultured in Potato-Dextrose Agar (PDA) supplemented with filtered seawater (FSW) (50% v/v) at 26 °C for 5 days prior to experiments. […] Briefly, fungal inocula were prepared by addition of 5 ml of sterile saline solution to the cultures. Gently swabbing released conidia. […] The plates were incubated for 5 days at 26 °C. The calculation of the half-maximal inhibitory concentrations (IC50) was performed using OD405 as endpoint.

pIC50: −log10 of the molar value. Some results are limits rather than exact numbers.

As usually defined, the pIC50 is −log10 of the IC50, conventionally taken in molar units.

For the compound `COC(=O)CCC[P+](c1ccccc1)(c1ccccc1)c1ccccc1` [Compound 2], the pIC50 in experiment [1] was 4.30; in the experiment with Nitzschia sp., 4.40; with Amphora sp. it was 4.36; in the experiment with Cylindrotheca sp. it was 4.63; in experiment [2], under 4.00; in experiment [3] it was under 4.00. In addition, in the experiment on Fusarium sp., the pIC50 was under 4.00. Moreover, in experiment [3], the “IC50 (Violacein inhibition)” value is “inactive”.
Regarding `BrCCCC[P+](c1ccccc1)(c1ccccc1)c1ccccc1` [Compound 4], the pIC50 was under 4.00 in experiment [1]; under 4.00 in the experiment on Nitzschia sp.; under 4.00 in the experiment on Amphora sp.; under 4.00 in the experiment on Cylindrotheca sp.; under 4.00 in experiment [2]; 3.85 in experiment [3]. Moreover, the pIC50 in the experiment with Fusarium sp. is under 4.00.
With `BrC(Br)[P+](c1ccccc1)(c1ccccc1)c1ccccc1` [Compound 1], the pIC50 in experiment [1] was 4.97; in the experiment on Nitzschia sp. it was 4.73; in the experiment on Amphora sp., 4.71; in the experiment with Cylindrotheca sp. it was 5.01; in experiment [2], 4.77; in experiment [3], under 4.00. Further, the pIC50 in the experiment on Fusarium sp. is under 4.00. Besides, the “IC50 (Violacein inhibition)” value in experiment [3] was “inactive”.
On to `CCCCCCCCCCC[P+](c1ccccc1)(c1ccccc1)c1ccccc1` [Compound 11], for which the pIC50 was 5.82 in experiment [1]; 5.64 in the experiment with Nitzschia sp.; 5.48 with Amphora sp.; 6.00 in the experiment with Cylindrotheca sp.; 5.77 in experiment [2]; 5.46 in experiment [3]. This compound gave a pIC50 with Fusarium sp. of 5.28.
